Results taken from patent US9475773B2, “NK3 receptor antagonist compound (NK3RA) for use in a method for the treatment of polycystic ovary syndrome (PCOS)” (ASTRAZENECA AB, priority 2013, dated 2016).

Tests used:
dogs [1] = assay: Single and repeat-dose toxicology in dogs; format: in vivo, dog
Text: In female dogs, ovarian uterine weights were reduced in treated animals. […] Thyroid weights were increased in the high dose group females. No other target organs have been identified.
Epididymides and prostate glands had gained maturity, but aspermia was present in all dogs and testicular immaturity remained. […]

hrNK3 receptor = molecular target: T1, hrNK3 receptor (Homo sapiens, UniProt P29371); assay: Intracellular Calcium Mobilisation Assay (hrNK3 CHO-K1 cells, Senktide, FLIPR); format: cell-based
T1 construct: expressed in transfected cells; host or cells: CHO-K1
T1 sequence (P29371 1-465): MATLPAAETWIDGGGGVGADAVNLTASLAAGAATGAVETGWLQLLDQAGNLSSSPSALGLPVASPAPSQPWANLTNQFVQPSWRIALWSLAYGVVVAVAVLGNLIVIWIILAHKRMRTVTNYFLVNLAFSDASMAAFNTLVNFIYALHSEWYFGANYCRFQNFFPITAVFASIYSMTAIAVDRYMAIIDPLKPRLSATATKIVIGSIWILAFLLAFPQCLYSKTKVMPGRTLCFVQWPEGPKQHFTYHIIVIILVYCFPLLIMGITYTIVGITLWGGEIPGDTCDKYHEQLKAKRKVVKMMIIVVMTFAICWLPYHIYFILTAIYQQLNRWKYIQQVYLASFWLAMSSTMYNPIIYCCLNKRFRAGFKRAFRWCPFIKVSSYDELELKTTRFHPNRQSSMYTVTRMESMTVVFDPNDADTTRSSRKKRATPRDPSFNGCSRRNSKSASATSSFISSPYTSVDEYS
Protocol: The activity of a compound in antagonising the hrNK3 receptor expressed in CHO cells may be measured in the following Intracellular Calcium Mobilisation Assay:
CHO-K1 cells stably transfected with human recombinant Neurokinin-3 receptor (hrNK3 CHO-K1) were cultured in […] tissue culture flasks as monolayers in complete Ham's F-12 media (supplemented with 10% (v/v) FBS, 2 mM L-glutamine and […] Hygromycin B). Cultures are maintained under standard tissue culture conditions. For experiments, PBS was used to wash cells free of culture media and Trypsin was used to detach cells from the flask surface. Cells were counted, pelleted by centrifugation (100 g for 5 min) and resuspended in cell plating medium (UltraCULTURE by BioWhittaker 12-725F containing 200 mM L-Glutamine). […]
Changes in intracellular free calcium were measured fluorometrically by loading hrNK3 CHO-K1 in 384-well plates with the calcium sensitive fluorescent dye, Fluo-4AM as described previously (Xiong et. al., Bioorg. Med. Chem. Lett. 2011, 21, 1896). […]
A test compound was pre-dissolved in DMSO and incubated with cells to a final concentration of 0.1% (v/v) DMSO for 15 minutes. Assays were initiated by the addition of Senktide (purchased from Bachem) and the transient increase in Fluo-4-fluorescence monitored using a FLIPR (Fluorometric Imaging Plate Reader, Molecular Devices, Sunnyvale, U.S.A.).

rat [2] = assay: Modified rat Irwin test; format: in vivo; settings: oral 46, 460 and 2022 mg/kg
Protocol: Safety pharmacology studies were carried out on NK3RA and included tests to investigate possible effects on the central nervous system (CNS), cardiovascular system, and respiratory system.

dogs [3] = assay: Dog electrocardiographic (ECG) telemetry study; format: in vivo
NK3 receptor = molecular target: T2, NK3 receptor (Homo sapiens, UniProt P29371); assay: In vitro target engagement; format: binding; settings: n=12
T2 sequence (P29371 1-465): T1 sequence (P29371 1-465)

serum testosterone = assay: SAD and MAD studies, serum testosterone in healthy male volunteers; format: in vivo, human
rat [4] = assay: Rat cocaine drug discrimination assay; format: in vivo; settings: oral doses up to 46 mg/kg

CC[C@H](NC(=O)c1c(NS(C)(=O)=O)c(-c2ccccc2)nc2ccccc12)c1ccccc1 [NK3RA, 3-(methanesulfonamido)-2-phenyl-N-[(1S)-1-phenylpropyl]quinoline-4-carboxamide]
NOEL (testis, epididymis and prostate weights) (dogs [1]; dog): no NOEL was established | plasma testosterone levels throughout the study (dogs [1]; dog): virtually totally suppressed | testes weights following the recovery period (dogs [1]; dog): only partially returned to control values | time after dosing by which plasma testosterone was very low (dogs [1]; dog): ≤ 4 h | hepatobiliary toxicity (dogs [1]; dogs): hepatobiliary toxicity in one high dose male | thyroid weights (dogs [1]; dogs, high dose group females): increased | liver weights (dogs [1]; dogs, mid and high doses): Increased | tolerability, multiple dosing for three month (dogs [1]; dogs, up to 1000 mg/kg/day): well tolerated | tolerability, single dosing (dogs [1]; dogs, up to the limit dose of 2000 mg/kg): well tolerated | female reproductive findings, 3-month study (dogs [1]; female dogs): reductions in ovarian and uterine weights and an increased incidence of anestrus | ovarian uterine weights (dogs [1]; female dogs): reduced | recovery of female reproductive findings (dogs [1]; female dogs, following 3 months off-dose): complete recovery | target organs in males (dogs [1]; male dogs): the testis, epididymis, and prostate were target organs | activity at the hrNK3 receptor expressed in CHO cells (hrNK3 receptor): antagonist of the hrNK3 receptor | findings in modified Irwin test (rat [2]): no significant findings | effect on blood pressure (dogs [3]): no effect | other ECG parameters including QTc interval duration (dogs [3]): No other ECG parameter, including QTc interval duration, was affected | reduction in heart rate (dogs [3]; highest dose tested 2000 mg/kg orally, transient, dose-related): up to 29% | IC50 (NK3 receptor): 2.24 ± 0.57 nM | serum testosterone (serum testosterone; healthy male volunteers, SAD 1-80 mg, MAD 5 mg QD to 30 mg BID for up to 6 days): dose dependent reduction in serum testosterone | durability of total testosterone reduction (serum testosterone; male volunteers and male schizophrenia patients): reductions in total testosterone levels durable up to 28 days | activity in cocaine drug discrimination (rat [4]): no activity
